The nature of this data set: Log P by HPLC on reversed phase columns (EEC directive 79/831 Annex V.A8; methods [a], [b], [c]). The format is physicochemical. Conditions: for chromatographic logP: reversed phase HPLC column. Put shortly: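 Log P derived from retention times, interpolated linearly between bracketing straight-chain alkan-2-ones (3–16 carbons) of known Log P. Eluents ran acetonitrile 10% to 95% against water with 0.1% formic acid ([a], acidic), 0.001 M ammonium acetate ([b], neutral) or 0.1% phosphoric acid ([c], acidic); UV read-out.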

Here are results for 82 compounds from patent US20200031778A1, “NOVEL 5-SUBSTITUTED IMIDAZOLYLMETHYL DERIVATIVES” (Bayer CropScience Aktiengesellschaft, priority 2016, published 2020).

Turning to `N#Cc1cncn1CC(O)(c1ccc(C#CC2CCCC2)cc1Cl)C1(F)CC1` (stereo not shown) [I-640], the LogP is 4.01^[a]. Same read-out and setting: next, `CC(C)(C)c1ccc(C#CC(O)(Cn2cncc2C#N)C2(Cl)CC2)cc1` (stereo not shown) [I-317]: 3.73^[a]; `CC(O)(Cn1cncc1F)c1cnc(Oc2ccc(C(F)(F)F)cc2)cc1Cl` (stereo not shown) [I-244]: 2.13^[a]. On the same count and under the same terms, as for `CC(O)(Cn1cncc1F)c1cnc(Oc2ccc(Cl)cc2)cc1C(F)(F)F` (stereo not shown) [I-240], the figure is 2.30^[a]. The same measure, in the same setting: as for `N#Cc1cncn1CC(O)(c1ccc(F)nc1F)C1(Cl)CC1` (stereo not shown) [I-550], the figure is 1.98^[a]; as for `CCOC(Cn1cncc1Br)c1ccc(Oc2ccc(Br)cc2)cc1Br` (stereo not shown) [I-57], 4.16^[a]; as for `CCOC(Cn1cncc1F)c1ccc(Oc2ccc(Cl)cc2)cc1C(F)(F)F` (stereo not shown) [I-107], 3.54^[a]. Turning to `N#Cc1cncn1CC(O)c1ccc(C(F)(F)F)cc1` (stereo not shown) [I-141], the LogP is 1.90^[a].

In the case of `C[Si](C)(C)CC(O)(Cn1cncc1C#N)c1ccc(F)cc1` (stereo not shown) [I-227], the LogP was 3.05^[a]. Consider `N#Cc1cncn1CC(O)(c1ccc(Cl)cc1F)C1(Cl)CC1` (stereo not shown) [I-358], for which the LogP was 2.57^[a]. The same measure, in the same setting: next, `N#Cc1cncn1CC(O)(c1cc(Cl)c(Cl)cc1F)C1(Cl)CC1` (stereo not shown) [I-621]: 2.80^[a]; `N#Cc1cncn1CC(O)(c1cc(Br)ccc1F)C1(Cl)CC1` (stereo not shown) [I-632]: 2.49^[a]; `N#Cc1cncn1CC(O)(c1c(F)ccc(F)c1F)C1(Cl)CC1` (stereo not shown) [I-615]: 2.23^[a]. For the compound `CC(O)(Cn1cncc1Cl)c1ccc(Oc2ccc(OC(F)(F)F)cc2)cc1Cl` (stereo not shown) [I-158], the LogP was 3.06^[a]. The same measure, in the same setting: as for `N#Cc1cncn1CC(O)c1cnc(Oc2ccc(Cl)cc2)cc1C(F)(F)F` (stereo not shown) [I-120], the figure is 2.87^[a]; as for `CC(C)(C)C(O)(Cn1cncc1C#N)c1cc(F)c(F)c(F)c1` (stereo not shown) [I-462], 2.76^[a]. For the compound `N#Cc1cncn1CC(O)(c1ccc(F)cc1F)C1(Cl)CC1` (stereo not shown) [I-355], the LogP is 2.28^[a]. Same read-out and setting: as for `N#Cc1cncn1CC(O)(c1ccc(F)c(F)c1Cl)C1(Cl)CC1` (stereo not shown) [I-628], the figure is 2.41^[a]; as for `CC(C)C(O)(Cn1cncc1C#N)c1ccc(F)cc1Br` (stereo not shown) [I-424], 2.69^[a]. In the case of `OC(Cn1cncc1Cl)c1ccc(Oc2ccc(Cl)cc2)cc1` (stereo not shown) [I-15], the LogP was 2.18^[a]. The same measure, in the same setting: next, `N#Cc1cncn1CC(O)(c1ccc(C2CC2)cc1Cl)C1(Cl)CC1` (stereo not shown) [I-332]: 2.88^[a]; `N#Cc1cncn1CC(O)(c1ccc(Cl)cc1Cl)C1CC1` (stereo not shown) [I-304]: 2.77^[a]; `N#Cc1cncn1CC(O)c1cnc(Oc2ccc(Cl)cc2F)cc1C(F)(F)F` (stereo not shown) [I-114]: 3.13^[a]. Still for that read-out and setting: as for `N#Cc1cncn1CC(O)(c1cc(F)c(F)c(F)c1)C1(F)CC1` (stereo not shown) [I-500], the figure is 2.34^[a]. Regarding `N#Cc1cncn1CC(O)(C#CCC1CCCCC1)C1CCC1` (stereo not shown) [I-592], the LogP is 3.51^[a]. Still for that read-out and setting: as for `CC(C)(C)C#Cc1ccc(C(O)(Cn2cncc2C#N)C2(F)CC2)c(F)c1` (stereo not shown) [I-646], the figure is 3.57^[a]. The same measure, in the same setting: next, `N#Cc1cncn1CC(O)(CC1CC1)c1ccc(F)c(F)c1` (stereo not shown) [I-489]: 2.30^[a]; `OC(Cn1cncc1Cl)c1ccc(Oc2ccc(Cl)cc2)cc1C(F)F` (stereo not shown) [I-71]: 2.45^[a]; `COc1cc(C(O)(Cn2cncc2C#N)C2(F)CC2)c(F)cc1Cl` (stereo not shown) [I-508]: 2.34^[a]. As to `OC(Cn1cncc1Cl)c1ccc(Oc2ccccn2)cc1Cl` (stereo not shown) [I-80], the LogP is 1.53^[a]. The same measure, in the same setting: as for `CC(O)(Cn1cncc1Cl)c1ccc(Oc2ccc(C(F)(F)F)cc2)cc1` (stereo not shown) [I-161], the figure is 2.51^[a]; as for `N#Cc1cncn1CC(O)(C#CCC1CCCCC1)C1CC1` (stereo not shown) [I-591], 3.02^[a]; as for `COc1nc(Cl)ccc1C(O)(Cn1cncc1C#N)C1(Cl)CC1` (stereo not shown) [I-561], 2.51^[a]. As to `N#Cc1cncn1CC(O)(c1ccc(Oc2ccccc2)cc1)C1(Cl)CC1` (stereo not shown) [I-281], the LogP is 3.19^[a]. On the same count and under the same terms, next, `CC(O)(Cn1cncc1F)c1ccc(Oc2ccc(Br)nc2)nc1C(F)(F)F` (stereo not shown) [I-363]: 1.84^[a]; `N#Cc1cncn1CC(O)(c1ccc(F)c(Cl)c1F)C1(F)CC1` (stereo not shown) [I-635]: 2.35^[a]; `CC(O)(Cn1cncc1F)c1ccc(Oc2ccc(C(F)(F)F)nc2)nc1C(F)(F)F` (stereo not shown) [I-290]: 2.06^[a]. On the same count and under the same terms, next, `CC(O)(Cn1cncc1Cl)c1cnc(Oc2ccc(Cl)cc2)cc1C(F)(F)F` (stereo not shown) [I-175]: 2.62^[a]; `N#Cc1cncn1CC(O)(CC1CC1)c1ccc(Cl)cc1F` (stereo not shown) [I-442]: 2.75^[a]; `C=CCC(O)(Cn1cncc1C#N)C1(Cl)CC1` (stereo not shown) [I-669]: 1.98^[a]. The same measure, in the same setting: as for `N#Cc1cncn1CC(O)(CC1CC1)c1c(F)cc(F)cc1F` (stereo not shown) [I-511], the figure is 2.34^[a]; as for `N#Cc1cncn1CC(O)(c1ccc(F)cc1)C1(F)CC1` (stereo not shown) [I-351], 2.04^[a]. As to `OC(Cn1cncc1Cl)c1ccc(Oc2ccc(C(F)(F)F)cc2)cc1` (stereo not shown) [I-13], the LogP is 2.37^[a]. The same measure, in the same setting: as for `N#Cc1cncn1CC(O)(C#Cc1ccc(Cl)cc1)C1(Cl)CC1` (stereo not shown) [I-322], the figure is 2.96^[a]; as for `CC(O)(Cn1cncc1C#N)c1ccc(Oc2ccc(Cl)cc2)cc1C(F)(F)F` (stereo not shown) [I-209], 3.51^[a]; as for `OC(Cn1cncc1Cl)c1ccc(Oc2ccccc2)cc1F` (stereo not shown) [I-30], 1.99^[a]. On to `CC(C)(C)C(O)(Cn1cncc1C#N)c1cc(F)c(F)c(Cl)c1` (stereo not shown) [I-544], for which the LogP was 3.07^[a]. Consider `CC(C)(C)C#Cc1ccc(C(O)(Cn2cncc2C#N)C2(Cl)CC2)c(Cl)c1` (stereo not shown) [I-657], for which the LogP was 3.99^[a]. On the same count and under the same terms, as for `N#Cc1cncn1CC(O)(CC1CC1)c1cc(Cl)cc(Br)c1` (stereo not shown) [I-531], the figure is 2.93^[a]. For orientation: chromatographic logP means a lipophilicity value derived from retention on a column. Read a high chromatographic logP as higher lipophilicity. `N#Cc1cncn1CC(=O)c1ccco1` [IX-146]: for the setting “method [a]: LC-UV, acidic range, 0.1% formic acid in water and acetonitrile as eluent (linear gradient from 10% to 95% acetonitrile)”, the chromatographic logP was 0.92. With `N#Cc1cncn1CC(O)(CC1CC1)C1(F)CC1` (stereo not shown) [I-504], the LogP is 1.99^[a]. On to `N#Cc1cncn1CC(=O)c1cnc(Oc2ccc(S(F)(F)(F)(F)F)cc2)cc1C(F)(F)F` [IX-81], for which the LogP is 3.67^[a]. In the case of `CC(O)(Cn1cncc1C#N)c1ccc(Oc2ccc(I)cc2)cc1Br` (stereo not shown) [I-217], the LogP is 3.81^[a]. With `OC(Cn1cncc1Cl)c1ccc(Oc2ccc(I)cc2)cc1Cl` (stereo not shown) [I-08], the LogP is 2.94^[a]. Still for that read-out and setting: next, `Cc1ccccc1C(O)(Cn1cncc1C#N)C1(Cl)CC1` (stereo not shown) [I-278]: 1.29^[a].

For `CC(C)(C)C(O)(Cn1cncc1C#N)c1ccc(F)cc1` (stereo not shown) [I-347], the LogP is 2.51^[a]. As to `CCOC(Cn1cncc1C(N)=O)c1ccc(Oc2ccc(Cl)cc2)cc1C(F)(F)F` (stereo not shown) [I-83], the LogP was 2.54^[a]. Still for that read-out and setting: as for `N#Cc1cncn1CC(O)(c1cc(F)cc(F)c1)C1(F)CC1` (stereo not shown) [I-473], the figure is 2.14^[a]; as for `CC(O)(Cn1cncc1C#N)c1cnc(Oc2ccc(Br)cc2)cc1C(F)F` (stereo not shown) [I-258], 2.68^[a]. Regarding `N#Cc1cncn1CC(O)(c1cc(Cl)cc(F)c1F)C1(Cl)CC1` (stereo not shown) [I-611], the LogP was 2.54^[a].

As to `N#Cc1cncn1CC(O)c1cnc(Oc2ccc(OC(F)(F)F)cc2)cc1C(F)(F)F` (stereo not shown) [I-125], the LogP was 3.35^[a]. Still for that read-out and setting: as for `CC(C)C(O)(Cn1cncc1C#N)C1(F)CC1` (stereo not shown) [I-380], the figure is 1.78^[a]; as for `CC(C)C(O)(Cn1cncc1C#N)c1ccccc1C(F)(F)F` (stereo not shown) [I-345], 2.46^[a]; as for `CCCC(C)C(O)(Cn1cncc1C#N)c1ccc(Cl)cc1Cl` (single isomer, unassigned) [I-316], 3.72^[a]. Take `N#Cc1cncn1CC(O)c1ccccc1Cl` (stereo not shown) [I-138]: the LogP is 1.57^[a]. Still for that read-out and setting: as for `N#Cc1cncn1CC(O)c1cnc(Oc2ccc(C(F)(F)F)cc2)cc1Br` (stereo not shown) [I-130], the figure is 3.13^[a]; as for `CCCC(C)C(O)(Cn1cncc1C#N)c1ccc(Cl)cc1` (single isomer, unassigned) [I-328], 3.15^[a]. Regarding `CC(C)(C)CC(O)(Cn1cncc1C#N)c1cccc(F)c1Cl` (stereo not shown) [I-368], the LogP is 3.15^[a]. Still for that read-out and setting: as for `CCCCC(O)(Cn1cncc1C#N)c1ccc(F)cc1F` (stereo not shown) [I-262], the figure is 2.73^[a]; as for `CCCC(C)CCC(O)(Cn1cncc1C#N)C1(Cl)CC1` (stereo not shown) [I-677], 3.69^[a]. Turning to `N#Cc1cncn1CC(O)c1ccc(Oc2ccc(C(F)(F)F)nc2)nc1C(F)(F)F` (stereo not shown) [I-143], the LogP was 2.56^[a]. On the same count and under the same terms, as for `O=C(Cn1cncc1F)c1ccc(Oc2ccc(C(F)(F)F)nc2)nc1C(F)(F)F` [IX-130], the figure is 2.16^[a]; as for `OC(Cn1cncc1Cl)c1ccc(Oc2ccc(C(F)(F)F)cc2)cc1C(F)(F)F` (stereo not shown) [I-35], 3.00^[a].

For `N#Cc1cncn1CC(O)(CCC1CCCCC1)C1(Cl)CC1` (stereo not shown) [I-660, 1-[2-(1-chlorocyclopropyl)-4-cyclohexyl-2-hydroxybutyl]-1H-imidazole-5-carbonitrile], the chromatographic logP (method [a], HPLC on reversed phase columns) was found to be 3.79. In the case of `N#Cc1cncn1CC(O)(c1ccc(F)cc1Br)C1(F)CC1` (stereo not shown) [I-357], the LogP is 2.31^[a].

Take `N#Cc1cncn1CC(O)(c1ccc(S(F)(F)(F)(F)F)cc1)C1(F)CC1` (stereo not shown) [I-379]: the LogP was 2.78^[a]. Same read-out and setting: next, `N#Cc1cncn1CC(O)(c1ccc(Cl)nc1Cl)C1(Cl)CC1` (stereo not shown) [I-597]: 2.12^[a]; `CCCCCC(O)(Cn1cncc1C#N)c1ccc(Cl)cc1` (stereo not shown) [I-286]: 3.10^[a]; `CC(=O)c1cncn1CC(C)(O)c1ccc(Oc2ccc(Br)cc2)cc1Cl` (stereo not shown) [I-197]: 3.07^[a]. As for `N#Cc1cncn1CC(O)(c1cc(Cl)c(Cl)cc1Cl)C1(Cl)CC1` (stereo not shown) [I-562], the LogP was 2.98^[a]. Same read-out and setting: as for `N#Cc1cncn1CC(O)(CC1CC1)c1cc(Cl)c(F)c(Cl)c1` (stereo not shown) [I-493], the figure is 2.95^[a].

Take `N#Cc1cncn1CC(O)(CCCC1CCCCC1)C1CCC1` (stereo not shown) [I-665]: the LogP was 4.16^[a].
